We go through seven compounds from ChEMBL document CHEMBL5291721, “A preclinical secondary pharmacology resource illuminates target-adverse drug reaction associations of marketed drugs” (Nat Commun, 2023).

Experiment [1] deals with T1, Adenosine receptor A1 (Homo sapiens, UniProt P30542).
T1 sequence (P30542 whole entry): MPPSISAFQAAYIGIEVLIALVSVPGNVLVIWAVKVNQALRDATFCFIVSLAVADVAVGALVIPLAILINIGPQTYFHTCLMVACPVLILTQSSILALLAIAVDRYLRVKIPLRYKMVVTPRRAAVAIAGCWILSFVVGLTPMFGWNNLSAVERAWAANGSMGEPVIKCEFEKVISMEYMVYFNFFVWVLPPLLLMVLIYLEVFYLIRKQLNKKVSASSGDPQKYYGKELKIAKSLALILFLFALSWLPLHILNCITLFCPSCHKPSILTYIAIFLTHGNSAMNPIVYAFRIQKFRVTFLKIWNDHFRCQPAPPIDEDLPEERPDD

In experiment [2] the target is T2, Alpha-1A adrenergic receptor (Homo sapiens, UniProt P35348).
T2 sequence (P35348 whole entry): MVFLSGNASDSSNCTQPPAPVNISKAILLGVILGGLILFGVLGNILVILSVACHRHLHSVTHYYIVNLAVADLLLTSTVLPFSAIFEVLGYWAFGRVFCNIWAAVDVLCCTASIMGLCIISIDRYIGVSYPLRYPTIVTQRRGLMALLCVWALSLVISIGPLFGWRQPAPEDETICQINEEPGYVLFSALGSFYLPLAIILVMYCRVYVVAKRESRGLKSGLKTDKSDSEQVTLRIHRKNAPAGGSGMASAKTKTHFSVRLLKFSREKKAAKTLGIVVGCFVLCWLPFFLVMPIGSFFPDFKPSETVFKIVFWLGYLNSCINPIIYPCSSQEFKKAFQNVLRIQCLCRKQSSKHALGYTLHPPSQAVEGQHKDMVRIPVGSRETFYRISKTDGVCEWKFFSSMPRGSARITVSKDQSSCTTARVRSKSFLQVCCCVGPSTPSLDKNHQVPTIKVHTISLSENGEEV
In kind it is functional, cell-based.

The target of experiment [3] is T3, Alpha-2A adrenergic receptor (Homo sapiens, UniProt P08913).
T3 sequence (P08913 whole entry): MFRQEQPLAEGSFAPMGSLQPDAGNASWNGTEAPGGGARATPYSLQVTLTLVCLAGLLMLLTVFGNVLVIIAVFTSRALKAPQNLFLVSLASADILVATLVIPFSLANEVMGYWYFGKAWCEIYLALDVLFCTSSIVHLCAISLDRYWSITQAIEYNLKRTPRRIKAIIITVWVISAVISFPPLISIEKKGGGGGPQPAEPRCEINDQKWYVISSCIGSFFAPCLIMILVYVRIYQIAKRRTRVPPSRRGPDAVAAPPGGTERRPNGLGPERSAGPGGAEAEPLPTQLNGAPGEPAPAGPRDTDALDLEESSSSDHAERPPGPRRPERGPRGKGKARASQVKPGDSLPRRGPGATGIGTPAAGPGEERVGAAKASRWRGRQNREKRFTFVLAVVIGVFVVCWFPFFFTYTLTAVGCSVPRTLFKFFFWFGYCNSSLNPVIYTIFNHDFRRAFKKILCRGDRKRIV
It is filed as functional, cell-based.

Experiment [4] addresses Beta-2 adrenergic receptor (Homo sapiens, UniProt P07550).
Experiment [5] has as its target Vasopressin V1a receptor (Homo sapiens, UniProt P37288).
Experiment [6] deals with Neuronal acetylcholine receptor subunit alpha-4 (Homo sapiens, UniProt P43681).
The target of experiment [7] is Cannabinoid receptor 1 (Homo sapiens, UniProt P21554).
In experiment [8] the target is T4, Endothelin-1 receptor (Homo sapiens, UniProt P25101).
T4 sequence (P25101 whole entry): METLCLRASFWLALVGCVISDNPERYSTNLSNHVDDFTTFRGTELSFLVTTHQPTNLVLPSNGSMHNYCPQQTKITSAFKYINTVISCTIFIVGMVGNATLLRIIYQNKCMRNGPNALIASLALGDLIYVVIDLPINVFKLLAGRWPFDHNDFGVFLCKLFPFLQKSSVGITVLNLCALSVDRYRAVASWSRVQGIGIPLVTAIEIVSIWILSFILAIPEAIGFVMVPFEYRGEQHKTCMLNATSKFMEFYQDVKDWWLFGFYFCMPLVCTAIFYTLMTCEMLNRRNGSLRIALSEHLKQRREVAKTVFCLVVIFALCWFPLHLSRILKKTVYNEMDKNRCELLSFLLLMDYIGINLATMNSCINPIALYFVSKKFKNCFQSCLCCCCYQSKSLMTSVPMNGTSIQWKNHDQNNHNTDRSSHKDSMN

Experiment [9] addresses Glutamate receptor ionotropic, NMDA 1 (Rattus norvegicus, UniProt P35439).
The target in experiment [10] is Histamine H2 receptor (Homo sapiens, UniProt P25021). It is filed as functional, cell-based.
The target in experiment [11] is T5, 5-hydroxytryptamine receptor 3A (Homo sapiens, UniProt P46098).
T5 sequence (P46098 whole entry): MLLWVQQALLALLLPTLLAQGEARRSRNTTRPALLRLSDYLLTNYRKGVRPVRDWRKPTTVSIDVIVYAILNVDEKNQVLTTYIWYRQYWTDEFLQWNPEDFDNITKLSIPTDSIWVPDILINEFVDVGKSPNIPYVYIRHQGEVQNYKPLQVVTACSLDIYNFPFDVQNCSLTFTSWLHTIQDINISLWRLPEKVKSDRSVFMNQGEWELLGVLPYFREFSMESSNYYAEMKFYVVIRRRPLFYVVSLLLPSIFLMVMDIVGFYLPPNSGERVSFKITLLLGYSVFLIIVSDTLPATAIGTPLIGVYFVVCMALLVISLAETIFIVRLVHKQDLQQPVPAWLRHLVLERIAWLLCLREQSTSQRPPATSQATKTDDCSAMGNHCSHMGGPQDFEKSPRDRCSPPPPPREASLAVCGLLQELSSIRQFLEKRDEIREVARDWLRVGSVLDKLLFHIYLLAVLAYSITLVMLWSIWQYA
In kind it is functional.

Experiment [12] addresses Melanocortin receptor 3 (Homo sapiens, UniProt P41968).
In experiment [13] the target is cGMP-inhibited 3',5'-cyclic phosphodiesterase 3A (Homo sapiens, UniProt Q14432). In kind it is functional.

The AC50 is the midpoint of the concentration-response curve, whichever way the signal moves.
Note: assay procedure not described here.

Sequence of Melanocortin receptor 3 (P41968 whole entry): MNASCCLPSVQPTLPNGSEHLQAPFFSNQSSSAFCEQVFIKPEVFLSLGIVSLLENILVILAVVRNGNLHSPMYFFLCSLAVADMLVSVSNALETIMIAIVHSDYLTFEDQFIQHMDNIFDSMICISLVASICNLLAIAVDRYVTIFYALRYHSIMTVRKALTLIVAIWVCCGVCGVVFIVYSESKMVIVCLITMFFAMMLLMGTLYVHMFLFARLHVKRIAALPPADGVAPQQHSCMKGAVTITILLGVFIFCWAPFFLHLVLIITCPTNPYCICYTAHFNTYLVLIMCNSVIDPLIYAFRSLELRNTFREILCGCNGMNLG
Sequence of Beta-2 adrenergic receptor (P07550 whole entry): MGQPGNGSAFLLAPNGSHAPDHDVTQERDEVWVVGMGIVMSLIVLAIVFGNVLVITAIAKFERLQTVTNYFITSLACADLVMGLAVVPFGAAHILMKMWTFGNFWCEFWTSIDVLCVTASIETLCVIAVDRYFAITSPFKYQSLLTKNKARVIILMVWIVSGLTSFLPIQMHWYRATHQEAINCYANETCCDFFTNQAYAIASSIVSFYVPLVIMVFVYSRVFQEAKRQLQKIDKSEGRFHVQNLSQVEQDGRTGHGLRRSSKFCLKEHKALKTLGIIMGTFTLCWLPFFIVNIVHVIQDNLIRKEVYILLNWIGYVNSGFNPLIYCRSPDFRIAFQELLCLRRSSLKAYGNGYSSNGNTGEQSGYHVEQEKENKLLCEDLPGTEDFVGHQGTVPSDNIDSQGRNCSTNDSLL
Sequence of Histamine H2 receptor (P25021 whole entry): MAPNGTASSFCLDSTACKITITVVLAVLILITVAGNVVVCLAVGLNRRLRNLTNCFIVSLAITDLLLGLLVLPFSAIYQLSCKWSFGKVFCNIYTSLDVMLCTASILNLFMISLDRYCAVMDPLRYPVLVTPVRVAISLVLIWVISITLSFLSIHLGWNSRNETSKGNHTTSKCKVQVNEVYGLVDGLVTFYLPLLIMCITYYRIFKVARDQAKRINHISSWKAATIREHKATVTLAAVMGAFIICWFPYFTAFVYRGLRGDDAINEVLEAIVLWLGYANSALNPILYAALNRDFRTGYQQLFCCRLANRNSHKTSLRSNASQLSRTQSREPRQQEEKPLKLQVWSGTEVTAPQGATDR
Sequence of Cannabinoid receptor 1 (P21554 whole entry): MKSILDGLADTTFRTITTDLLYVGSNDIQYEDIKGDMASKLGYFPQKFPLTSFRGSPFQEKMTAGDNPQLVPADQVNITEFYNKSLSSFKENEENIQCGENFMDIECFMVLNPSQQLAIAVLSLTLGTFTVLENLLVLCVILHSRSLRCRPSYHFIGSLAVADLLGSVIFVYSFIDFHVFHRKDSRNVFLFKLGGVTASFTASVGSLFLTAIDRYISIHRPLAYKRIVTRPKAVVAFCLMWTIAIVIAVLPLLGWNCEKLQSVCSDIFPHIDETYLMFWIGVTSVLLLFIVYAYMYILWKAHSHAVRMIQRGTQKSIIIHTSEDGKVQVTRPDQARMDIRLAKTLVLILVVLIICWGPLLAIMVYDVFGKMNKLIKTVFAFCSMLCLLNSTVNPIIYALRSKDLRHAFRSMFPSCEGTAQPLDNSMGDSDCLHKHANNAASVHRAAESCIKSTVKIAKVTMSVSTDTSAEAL
Sequence of Vasopressin V1a receptor (P37288 whole entry): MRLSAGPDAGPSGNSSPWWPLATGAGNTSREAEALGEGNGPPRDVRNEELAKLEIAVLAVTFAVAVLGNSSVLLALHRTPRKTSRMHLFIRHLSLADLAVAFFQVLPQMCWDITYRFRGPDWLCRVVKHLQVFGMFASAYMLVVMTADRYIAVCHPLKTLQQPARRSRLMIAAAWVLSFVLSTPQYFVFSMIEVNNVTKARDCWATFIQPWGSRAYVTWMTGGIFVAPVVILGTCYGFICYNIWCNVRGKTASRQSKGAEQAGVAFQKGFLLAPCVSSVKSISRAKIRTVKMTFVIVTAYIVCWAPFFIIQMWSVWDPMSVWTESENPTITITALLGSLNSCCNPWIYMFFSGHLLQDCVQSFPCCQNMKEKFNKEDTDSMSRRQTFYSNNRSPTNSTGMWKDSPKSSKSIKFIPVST
Sequence of cGMP-inhibited 3',5'-cyclic phosphodiesterase 3A (Q14432 whole entry): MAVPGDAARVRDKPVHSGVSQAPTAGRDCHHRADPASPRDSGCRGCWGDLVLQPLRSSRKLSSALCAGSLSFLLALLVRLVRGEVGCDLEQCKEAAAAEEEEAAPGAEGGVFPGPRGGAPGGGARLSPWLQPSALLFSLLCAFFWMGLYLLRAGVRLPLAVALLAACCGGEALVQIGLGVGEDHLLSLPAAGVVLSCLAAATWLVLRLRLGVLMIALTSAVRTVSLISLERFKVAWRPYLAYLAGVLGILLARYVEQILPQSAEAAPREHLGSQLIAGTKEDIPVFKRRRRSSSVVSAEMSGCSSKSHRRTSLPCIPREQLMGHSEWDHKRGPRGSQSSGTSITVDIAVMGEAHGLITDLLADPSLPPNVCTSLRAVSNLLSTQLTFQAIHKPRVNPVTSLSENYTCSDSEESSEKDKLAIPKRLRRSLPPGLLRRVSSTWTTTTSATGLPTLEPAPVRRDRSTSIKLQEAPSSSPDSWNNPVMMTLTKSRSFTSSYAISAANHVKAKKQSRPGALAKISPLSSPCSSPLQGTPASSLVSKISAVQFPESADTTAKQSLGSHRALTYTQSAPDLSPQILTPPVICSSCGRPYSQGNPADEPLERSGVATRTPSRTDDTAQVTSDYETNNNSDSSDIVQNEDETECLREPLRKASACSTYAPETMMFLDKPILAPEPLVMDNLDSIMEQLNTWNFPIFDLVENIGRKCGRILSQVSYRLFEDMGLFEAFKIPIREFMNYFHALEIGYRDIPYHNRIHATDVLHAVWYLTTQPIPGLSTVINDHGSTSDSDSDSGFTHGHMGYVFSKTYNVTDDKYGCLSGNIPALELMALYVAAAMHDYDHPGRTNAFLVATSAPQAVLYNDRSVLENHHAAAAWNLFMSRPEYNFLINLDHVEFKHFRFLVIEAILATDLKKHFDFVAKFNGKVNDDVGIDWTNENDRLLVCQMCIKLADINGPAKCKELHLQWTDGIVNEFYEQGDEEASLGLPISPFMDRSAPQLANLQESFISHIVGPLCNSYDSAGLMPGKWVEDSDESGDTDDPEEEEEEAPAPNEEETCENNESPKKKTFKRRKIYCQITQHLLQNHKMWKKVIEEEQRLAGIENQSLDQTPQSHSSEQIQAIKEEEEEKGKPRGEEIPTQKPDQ
Sequence of Neuronal acetylcholine receptor subunit alpha-4 (P43681 whole entry): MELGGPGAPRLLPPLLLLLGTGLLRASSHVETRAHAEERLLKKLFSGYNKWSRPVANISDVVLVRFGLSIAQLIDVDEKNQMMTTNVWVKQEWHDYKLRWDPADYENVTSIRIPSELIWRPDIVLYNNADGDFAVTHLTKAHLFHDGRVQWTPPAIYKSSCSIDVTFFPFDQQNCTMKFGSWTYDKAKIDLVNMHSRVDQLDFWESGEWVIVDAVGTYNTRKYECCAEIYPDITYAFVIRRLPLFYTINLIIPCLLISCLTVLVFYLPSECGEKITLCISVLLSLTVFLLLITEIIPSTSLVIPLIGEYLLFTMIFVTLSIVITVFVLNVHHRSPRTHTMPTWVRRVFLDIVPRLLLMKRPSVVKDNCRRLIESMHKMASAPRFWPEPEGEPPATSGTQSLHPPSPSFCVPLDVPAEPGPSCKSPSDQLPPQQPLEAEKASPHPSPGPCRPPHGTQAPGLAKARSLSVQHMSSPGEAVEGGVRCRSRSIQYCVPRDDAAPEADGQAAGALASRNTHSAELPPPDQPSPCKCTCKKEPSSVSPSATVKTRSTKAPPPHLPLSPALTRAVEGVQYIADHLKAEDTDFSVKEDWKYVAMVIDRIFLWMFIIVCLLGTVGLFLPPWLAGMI

As for `CN(C)CCc1c[nH]c2ccc(Cn3cncn3)cc12` [RIZATRIPTAN], the AC50 in experiment [1] is over 30 µM; in experiment [2], over 30 µM; in [3], over 30 µM; in experiment [4] it was over 10 µM; in [5] it was over 10 µM; in experiment [6], over 10 µM. The AC50 in experiment [7] was over 10 µM; in experiment [8], over 30 µM; in [9], over 30 µM; in [10] it was over 30 µM; in experiment [11], over 30 µM; in [12], over 30 µM. In experiment [13], the AC50 was over 30 µM.
On to `Nc1ccc(S(=O)(=O)Nc2nccs2)cc1` [SULFATHIAZOLE], for which the AC50 in experiment [1] is over 30 µM; in experiment [2], over 30 µM; in experiment [3], over 10 µM; in [4], over 10 µM; in experiment [5] it was over 10 µM; in experiment [6], over 10 µM. Moreover, the AC50 in experiment [7] is over 10 µM; in experiment [8] it was over 30 µM; in [9], over 10 µM; in experiment [10] it was over 10 µM; in experiment [11] it was over 30 µM; in experiment [12], over 30 µM. The same compound registered an AC50 in experiment [13] of over 30 µM.
For the compound `C[C@H]1c2cccc(O)c2C(=O)C2=C(O)[C@]3(O)C(=O)C(C(N)=O)=C(O)[C@@H](N(C)C)[C@@H]3[C@@H](O)[C@@H]21` [DOXYCYCLINE], the AC50 in [1] was 24.2 µM; in experiment [2] it was over 30 µM; in experiment [3] it was over 10 µM; in experiment [4], over 10 µM; in experiment [5], over 10 µM; in experiment [6], over 10 µM. Further, the AC50 in [7] is over 10 µM; in [8], over 30 µM; in experiment [9], over 10 µM; in experiment [10] it was over 10 µM; in experiment [11], over 30 µM; in [12] it was over 30 µM. In experiment [13], the AC50 is over 30 µM.
With `CC(C)N(CCC(C(N)=O)(c1ccccc1)c1ccccn1)C(C)C` (stereo unspecified) [DISOPYRAMIDE], the AC50 is over 30 µM in experiment [1]; over 30 µM in experiment [2]; over 10 µM in [3]; over 30 µM in [4]; over 30 µM in experiment [5]; over 30 µM in [6]. The AC50 in experiment [7] was over 10 µM; in experiment [8], over 30 µM; in experiment [9] it was over 10 µM; in experiment [10], over 10 µM; in experiment [11], over 30 µM; in experiment [12], over 30 µM. Further, half-maximal activity in experiment [13] (AC50) was put at 5.4 µM.
With `CC(C)Cc1ccc(C(C)C(=O)O)cc1` (stereo unspecified) [IBUPROFEN], the AC50 in [1] is over 30 µM; in [2] it was over 30 µM; in experiment [3] it was over 10 µM; in [4], over 10 µM; in experiment [5] it was over 30 µM; in experiment [6] it was over 10 µM. The AC50 in [7] was over 10 µM; in experiment [8] it was over 30 µM; in [9], over 10 µM; in experiment [10], over 10 µM; in experiment [11], over 30 µM; in experiment [12], over 30 µM. In [13], this compound had an AC50 of over 30 µM.
For the compound `C=CC[C@@H]1/C=C(\C)C[C@H](C)C[C@H](OC)[C@H]2O[C@@](O)(C(=O)C(=O)N3CCCC[C@H]3C(=O)O[C@H](/C(C)=C/[C@@H]3CC[C@@H](O)[C@H](OC)C3)[C@H](C)[C@@H](O)CC1=O)[C@H](C)C[C@@H]2OC` [TACROLIMUS ANHYDROUS], the AC50 is over 30 µM in experiment [1]; over 30 µM in [2]; over 10 µM in experiment [3]; over 10 µM in [4]; over 30 µM in experiment [5]; over 30 µM in [6]. For the same compound, the AC50 was over 10 µM in [7]; over 30 µM in experiment [8]; over 10 µM in [9]; over 10 µM in experiment [10]; over 30 µM in experiment [11]; over 30 µM in [12]. The compound also yielded an AC50 in experiment [13] of over 30 µM.
As for `CO[C@H]1/C=C/O[C@@]2(C)Oc3c(C)c(O)c4c(O)c(c(/C=N/N5CCN(C)CC5)c(O)c4c3C2=O)NC(=O)/C(C)=C\C=C\[C@H](C)[C@H](O)[C@@H](C)[C@@H](O)[C@@H](C)[C@H](OC(C)=O)[C@@H]1C` [RIFAMPIN], the AC50 is 18.8 µM in [1]; over 30 µM in experiment [2]; over 30 µM in experiment [3]; 29 µM in experiment [4]; 26.7 µM in experiment [5]; 22 µM in experiment [6]. Moreover, the AC50 in experiment [7] was over 30 µM; in experiment [8], over 30 µM; in experiment [9], over 30 µM; in experiment [10], over 30 µM; in experiment [11], 5.2 µM; in experiment [12] it was over 30 µM. For the same compound, in experiment [13], the AC50 came to 18.3 µM.
